According to PubChem BioAssay (NCI):
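Results reflect a 48-hour exposure of cells in 96-well plates to compound at five concentrations. Definition used: TGI = concentration required for complete inhibition of growth.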 Where a SMILES comes first, the peptide text is derived from it. [ ]: non-standard residue; d: D form. The star is where a group is joined. Phe(4-NO2) = N[CH](Cc1ccc([N+](=O)[O-])cc1)C(=O)O; Boc = CC(C)(C)OC(=O)*

Experiments:
Assay in all cases: NCI-60 cell line screen, 48 h
SR leukemia = test system: SR leukemia
SNB-75 CNS = test system: SNB-75 CNS
T-47D breast = test system: T-47D breast
HCC-2998 colon = test system: HCC-2998 colon
ACHN renal = test system: ACHN renal
HT29 colon = test system: HT29 colon
HL-60(TB) leukemia = test system: HL-60(TB) leukemia
TK-10 renal = test system: TK-10 renal
OVCAR-4 ovarian = test system: OVCAR-4 ovarian
SK-MEL-28 melanoma = test system: SK-MEL-28 melanoma
SF-539 CNS = test system: SF-539 CNS
CAKI-1 renal = test system: CAKI-1 renal
COLO 205 colon = test system: COLO 205 colon
HCT-116 colon = test system: HCT-116 colon
786-0 renal = test system: 786-0 renal
PC-3 prostate = test system: PC-3 prostate
RXF 393 renal = test system: RXF 393 renal
SW-620 colon = test system: SW-620 colon
HCT-15 colon = test system: HCT-15 colon
HS 578T breast = test system: HS 578T breast
SF-268 CNS = test system: SF-268 CNS
UO-31 renal = test system: UO-31 renal
NCI-H460 lung = test system: NCI-H460 lung
NCI-H226 lung = test system: NCI-H226 lung
SN12C renal = test system: SN12C renal
K-562 leukemia = test system: K-562 leukemia
MCF7 breast = test system: MCF7 breast
EKVX NSCLC = test system: EKVX NSCLC
DU-145 prostate = test system: DU-145 prostate
SK-MEL-5 melanoma = test system: SK-MEL-5 melanoma
MOLT-4 leukemia = test system: MOLT-4 leukemia
M14 melanoma = test system: M14 melanoma
SF-295 CNS = test system: SF-295 CNS
OVCAR-5 ovarian = test system: OVCAR-5 ovarian
U251 CNS = test system: U251 CNS
OVCAR-8 ovarian = test system: OVCAR-8 ovarian
MDA-N = test system: MDA-N
MDA-MB-231 breast = test system: MDA-MB-231 breast
HOP-62 NSCLC = test system: HOP-62 NSCLC
OVCAR-3 ovarian = test system: OVCAR-3 ovarian
IGROV1 ovarian = test system: IGROV1 ovarian
MALME-3M melanoma = test system: MALME-3M melanoma
HOP-92 NSCLC = test system: HOP-92 NSCLC
BT-549 breast = test system: BT-549 breast
SNB-19 CNS = test system: SNB-19 CNS
KM12 colon = test system: KM12 colon
A549 NSCLC = test system: A549 NSCLC
NCI-H522 lung = test system: NCI-H522 lung
MDA-MB-435 = test system: MDA-MB-435
A498 renal = test system: A498 renal
UACC-62 melanoma = test system: UACC-62 melanoma
LOX IMVI melanoma = test system: LOX IMVI melanoma
RPMI-8226 leukemia = test system: RPMI-8226 leukemia
NCI-H23 lung = test system: NCI-H23 lung
NCI/ADR-RES ovarian = test system: NCI/ADR-RES ovarian
SK-OV-3 ovarian = test system: SK-OV-3 ovarian
SK-MEL-2 melanoma = test system: SK-MEL-2 melanoma
UACC-257 melanoma = test system: UACC-257 melanoma
CCRF-CEM leukemia = test system: CCRF-CEM leukemia

CNC(=O)CCC(NC(=O)OC(C)(C)C)C(=O)NC(Cc1ccc([N+](=O)[O-])cc1)C(=O)NCC(=O)NC (centres undefined) (Boc-Glu(NHMe)-[Phe(4-NO2)]-Gly-NHMe; configuration not given here) was tested, and the TGI (SR leukemia) was > 100 µM, the TGI (SNB-75 CNS) was > 100 µM and the TGI (T-47D breast) was > 100 µM. The TGI (HCC-2998 colon) was > 100 µM, the TGI (ACHN renal) was > 100 µM and the TGI (HT29 colon) was > 100 µM. For the same compound, the TGI (HL-60(TB) leukemia) was > 100 µM, the TGI (TK-10 renal) was > 100 µM and the TGI (OVCAR-4 ovarian) was > 100 µM. The TGI (SK-MEL-28 melanoma) was > 100 µM, the TGI (SF-539 CNS) was > 100 µM and the TGI (CAKI-1 renal) was > 100 µM. The TGI (COLO 205 colon) was > 100 µM, the TGI (HCT-116 colon) was > 100 µM and the TGI (786-0 renal) was > 100 µM. The TGI (PC-3 prostate) was > 100 µM, the TGI (RXF 393 renal) was > 100 µM and the TGI (SW-620 colon) was > 100 µM. For the same compound, the TGI (HCT-15 colon) was > 100 µM, the TGI (HS 578T breast) was > 100 µM and the TGI (SF-268 CNS) was > 100 µM. The TGI (UO-31 renal) was > 100 µM, the TGI (NCI-H460 lung) was > 100 µM and the TGI (NCI-H226 lung) was > 100 µM. For the same compound, the TGI (SN12C renal) was > 100 µM, the TGI (K-562 leukemia) was > 100 µM and the TGI (MCF7 breast) was > 100 µM. The TGI (EKVX NSCLC) was > 100 µM, the TGI (DU-145 prostate) was > 100 µM and the TGI (SK-MEL-5 melanoma) was > 100 µM. The TGI (MOLT-4 leukemia) was > 100 µM, the TGI (M14 melanoma) was > 100 µM and the TGI (SF-295 CNS) was > 100 µM. The TGI (OVCAR-5 ovarian) was > 100 µM, the TGI (U251 CNS) was > 100 µM and the TGI (OVCAR-8 ovarian) was > 100 µM. The TGI (MDA-N) was > 100 µM, the TGI (MDA-MB-231 breast) was > 100 µM and the TGI (HOP-62 NSCLC) was > 100 µM. For the same compound, the TGI (OVCAR-3 ovarian) was > 100 µM, the TGI (IGROV1 ovarian) was > 100 µM and the TGI (MALME-3M melanoma) was > 100 µM. For the same compound, the TGI (HOP-92 NSCLC) was > 100 µM, the TGI (BT-549 breast) was > 100 µM and the TGI (SNB-19 CNS) was > 100 µM. The TGI (KM12 colon) was > 100 µM, the TGI (A549 NSCLC) was > 100 µM and the TGI (NCI-H522 lung) was > 100 µM. The TGI (MDA-MB-435) was > 100 µM, the TGI (A498 renal) was > 100 µM and the TGI (UACC-62 melanoma) was > 100 µM. For the same compound, the TGI (LOX IMVI melanoma) was > 100 µM, the TGI (RPMI-8226 leukemia) was > 100 µM and the TGI (NCI-H23 lung) was > 100 µM. For the same compound, the TGI (NCI/ADR-RES ovarian) was > 100 µM and the TGI (SK-OV-3 ovarian) was > 100 µM.

COc1ccc2c(c1)CCc1c-2n(CCN2CCCCC2)c2ccc(OC)cc12 was tested, and the TGI (SR leukemia) was > 100 µM, the TGI (SNB-75 CNS) was > 100 µM and the TGI (T-47D breast) was > 100 µM. The TGI (HCC-2998 colon) was > 100 µM, the TGI (ACHN renal) was > 100 µM and the TGI (HT29 colon) was > 100 µM. The TGI (TK-10 renal) was > 100 µM, the TGI (OVCAR-4 ovarian) was > 100 µM and the TGI (SK-MEL-28 melanoma) was > 100 µM. The TGI (CAKI-1 renal) was > 100 µM, the TGI (COLO 205 colon) was > 100 µM and the TGI (HCT-116 colon) was > 100 µM. The TGI (786-0 renal) was > 100 µM, the TGI (PC-3 prostate) was > 100 µM and the TGI (SK-MEL-2 melanoma) was > 100 µM. The TGI (SW-620 colon) was > 100 µM, the TGI (UACC-257 melanoma) was > 100 µM and the TGI (HCT-15 colon) was > 100 µM. The TGI (HS 578T breast) was > 100 µM, the TGI (SF-268 CNS) was > 100 µM and the TGI (UO-31 renal) was > 100 µM. For the same compound, the TGI (NCI-H460 lung) was > 100 µM, the TGI (NCI-H226 lung) was 56.7 µM and the TGI (SN12C renal) was > 100 µM. For the same compound, the TGI (CCRF-CEM leukemia) was > 100 µM, the TGI (K-562 leukemia) was > 100 µM and the TGI (MCF7 breast) was > 100 µM. For the same compound, the TGI (EKVX NSCLC) was > 100 µM, the TGI (DU-145 prostate) was > 100 µM and the TGI (SK-MEL-5 melanoma) was > 100 µM. The TGI (M14 melanoma) was > 100 µM, the TGI (SF-295 CNS) was > 100 µM and the TGI (OVCAR-5 ovarian) was > 100 µM. The TGI (U251 CNS) was > 100 µM, the TGI (OVCAR-8 ovarian) was > 100 µM and the TGI (MDA-N) was > 100 µM. For the same compound, the TGI (MDA-MB-231 breast) was > 100 µM, the TGI (HOP-62 NSCLC) was > 100 µM and the TGI (OVCAR-3 ovarian) was > 100 µM. The TGI (IGROV1 ovarian) was > 100 µM, the TGI (MALME-3M melanoma) was > 100 µM and the TGI (BT-549 breast) was > 100 µM. For the same compound, the TGI (SNB-19 CNS) was > 100 µM, the TGI (A549 NSCLC) was > 100 µM and the TGI (NCI-H522 lung) was > 100 µM. The TGI (MDA-MB-435) was > 100 µM, the TGI (A498 renal) was > 100 µM and the TGI (UACC-62 melanoma) was > 100 µM. The TGI (LOX IMVI melanoma) was > 100 µM, the TGI (RPMI-8226 leukemia) was > 100 µM and the TGI (NCI-H23 lung) was > 100 µM. For the same compound, the TGI (NCI/ADR-RES ovarian) was > 100 µM and the TGI (SK-OV-3 ovarian) was > 100 µM.
